Laboratory results from article PMC11349956 (EJNMMI Radiopharmacy and Chemistry, 2024).
Counter-ions that a name gives are not always drawn.

How the values were obtained:
[1] = rat striatum, 18F-LBT-999, ref Sérrière et al. [2014]; cited from earlier work
[2] = biological target: DAT (Rattus norvegicus, UniProt P23977); type: in vivo; settings: GBR12909 12.5 mg/kg i.p. 15 min before LBT-999 0.02 mg/kg i.v.
DAT, sequence (P23977 whole entry): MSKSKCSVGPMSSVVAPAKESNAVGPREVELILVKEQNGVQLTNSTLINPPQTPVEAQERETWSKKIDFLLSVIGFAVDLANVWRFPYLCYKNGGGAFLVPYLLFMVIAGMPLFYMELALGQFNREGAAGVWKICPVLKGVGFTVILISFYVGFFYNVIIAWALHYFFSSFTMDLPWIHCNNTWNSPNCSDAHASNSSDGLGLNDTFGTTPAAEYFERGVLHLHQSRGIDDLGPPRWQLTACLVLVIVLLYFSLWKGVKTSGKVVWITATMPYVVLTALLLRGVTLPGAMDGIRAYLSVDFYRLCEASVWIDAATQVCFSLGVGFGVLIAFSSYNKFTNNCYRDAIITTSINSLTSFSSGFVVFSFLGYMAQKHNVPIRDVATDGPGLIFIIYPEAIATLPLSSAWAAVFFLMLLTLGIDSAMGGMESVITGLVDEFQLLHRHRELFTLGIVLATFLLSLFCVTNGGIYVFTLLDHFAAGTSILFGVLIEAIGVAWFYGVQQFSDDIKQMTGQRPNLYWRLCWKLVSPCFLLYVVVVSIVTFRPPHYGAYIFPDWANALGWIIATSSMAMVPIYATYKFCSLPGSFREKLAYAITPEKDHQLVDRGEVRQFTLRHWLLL

Compound | average percentage of injected doses in the striatum derived from PET studies [1] | effect on brain binding of LBT-999 [2]
COC(=O)[C@H]1[C@@H](c2ccc(C)cc2)C[C@@H]2CC[C@H]1N2C/C=C/C[18F] [18F-LBT-999] | 2.17 ± 0.42% | –
Fc1ccc(C(OCCN2CCN(CCCc3ccccc3)CC2)c2ccc(F)cc2)cc1 [GBR 12909, 1-(2-bis(4-fluorophenyl)methoxy)ethyl)-4-(3-phenylpropyl)piperazine hydrochloride] | – | prevented any binding of LBT-999
